# Measured values taken from US6245758A, “Methods of use for peroxynitrite decomposition catalysts, pharmaceutical compositions therefor” (priority 1996, dated 2001).
# Legend:
# RAW 264.7 cells = test: Cell protection assay, Alamar Blue viability after peroxynitrite challenge; assay type: cell-based, murine; settings: for protection of cells from PN-mediated injury: PN 500 micromolar, RAW cells, FIG. 9 (H2 TMPyP and ZnTMPyP: data not shown)
# Experimental: FIG. 8: Comparison of Ni and Fe Catalyst Protection of RAW Cells from PN(peroxynitrite)-mediated Injury. RAW 264.7 cells were plated at approximately 2×10^5 per well of a 96-well plate. […] Each condition represents the mean of 4 wells ±sem.
# FIG. 9: Protection from PN-mediated RAW Cell Injury by Fe Catalysts. Cells were treated with 500 micromolar PN in the presence or the absence of the following catalysts: FeTMPyP, FeTMPS, FeTPPS. Cell viability was monitored as described in the text and figure legends 1, 2 and 3. Values represent the mean of 4 determinations ±sem.
# Protocol for Cell Protection Assays using Peroxynitrite Decomposition Catalysts: A cell viability assay was established to rapidly assess the efficacy of peroxynitrite(PN) catalysts in protecting cells from PN25 mediated injury and death. The peroxynitrite challenge consisted of a pulse of synthetic PN added exogenously to cells. In order to better assess the efficacy of PN catalysts in protecting cells from PN-mediated damage, a quantity of peroxynitrite(in 50 mM NaOH) determined to cause maximal injury(100%) was added as an exogenous pulse to each well of cells in the presence or absence of catalyst. The NaOH vehicle was not toxic by itself.
# Cells(RAW 264.7 cells or P815 mastocytoma cells; American Type Culture Collection, Rockville, Md.) were plated to confluence on 96-well tissue culture plates. Each well is washed twice with Dulbecco's phosphate buffered saline(DPBS; GIBCO BRL, Grand Island, N.Y.) to remove protein and other serum components which might react with the exogenous peroxynitrite. To each well is then added 200 μl of DPBS. PN is next placed into separate wells at increasing concentrations and cell viability monitored. The dose at which maximal cell death is attained is then utilized for the catalyst protection assessment.
# Phosphate-buffered saline (200 uL) containing increasing concentrations of catalyst is next placed into individual wells of cells. The maximal dose of PN is subsequently administered to all wells of cells. After 15 minutes, the medium is removed from each well and the cells are either allowed to recover overnight in Earles minimum essential medium without phenol red and supplemented with 10% fetal bovine serum or alternatively the plate of cells is assayed that day for mitochondrial integrity using the Alamar Blue viability assay(Alamar Biosciences, Inc.; Sacramento, Calif.). In either case, cells are incubated at 37° C. in 5% CO2.
# Cell injury is measured as follows. Briefly, 10% Alamar Blue(v/v) in Earles MEM with 10% FBS is added to each well of cells for 1-2h. Cell metabolism of the dye generates a fluorescent product which is directly related to the number of viable cells. Moreover, the production of the fluorescent metabolite is linear for over 2 h. The amount of fluorescent product in 100 μl of conditioned medium from each well of cells is then measured with an IDEXX fluorescent plate reader (gain setting of 1%) at an emission wavelength of 575 nm after exciting at 545 nm. Viability is either given as absolute fluorescent units or as a percent of the value obtained for untreated cells(100%).
# [1] = Catalysis of dismutation of superoxide; settings: under the assay conditions employed
# rat jejunum [2] = test: Histological examination of jejunal tissues after LPS; assay type: in vivo; settings: 30 mg/kg i.v.
# CuZnSOD = test: Protection of CuZnSOD from inactivation by peroxynitrite using peroxynitrite decomposition catalysts; assay type: biochemical, bovine; settings: Fe(III)TMPyP 0.5 and 1.0 uM, Fe(III)TMPS 1.0 and 5.0 uM; peroxynitrite 0-100 uM
# Experimental: Assay solutions were prepared as described above except for the addition of various of peroxynitrite decomposition catalyst. The final solution volume was maintained at 10 mL. Thus, to the assay solutions Fe(III)TMPyP (0.5 and 1.0 uM final concentration) and Fe(III)TMPS (1.0 and 5.0 uM final concentration) was added. The solution were then treated with various amounts of peroxynitrite such that the final concentrations of 0,25, 50, 75 and 100 uM were achieved. Following treatment with peroxynitrite EDTA was added to a final concentration of 250 uM. The solutions were then assayed for SOD activity.
# rat jejunum [3] = test: Intestinal vascular permeability (radiolabelled albumin leakage) after endotoxin (LPS); assay type: in vivo; settings: 30 mg/kg, i.v, 3 h after LPS; determined 1 h later
# Experimental: FIG. 10 . Effects of FeTMPS, FeTMPyP or ZnTMPyP (30 mg/kg, i.v bolus) administered 3 h after challenge with E. coli lipopolysaccharide (LPS, 3 mg/kg, i.v bolus) on the increase in leakage of radio-labelled albumin (plasma extravasation, μl/g tissue) observed 1 h later (e.g 4 h after LPS challenge) in the rat jejunum. Results are shown as mean±s.e.m of 4-8 rats.
# Intestinal vascular permeability was determined as the leakage into the jejunal tissue of [^125 I]-labelled bovine serum albumin ([^125 ]-BSA) administered intravenously (0.5 ml; 0.5 μCi) together with either LPS (3 mg/kg, serotype O111:B4) or isotonic saline. At 4 h after LPS administration, segments of jejunal tissue were ligated and removed. The intestinal tissues were rapidly washed, blotted dry and weighed. Blood (0.5 ml) was collected into tubes containing tri-sodium citrate (0.318% final concentration) and plasma prepared by centrifugation (10,000 g×10 min). The {^125 I]-BSA content in segments of whole tissue and in aliquots of plasma (100 μl) was determined in a gamma counter. The total content of plasma in the intestinal tissues was expressed as μl/g tissue. Changes in intravascular volume in the intestinal tissue was determined in an additional group of rats by administering ([^125 I]-BSA) intravenously 2 min before removal of the jejunum. The tissue and plasma content of radiolabel was determined and intravascular volume expressed as μl/g tissue. This value was substracted from that obtained in the plasma leakage studies to obtain a measure of the intestinal plasma albumin leakage. After LPS administration (4 h), there was a significant (P<0.01) increase in the plasma leakage (from 77±10 to 224±18 μl/g tissue, n=8).
SMILES,protection of cells from PN-mediated injury (RAW 264.7 cells),catalysis of the dismutation of superoxide [1],LPS-induced jejunal damage (histology) (rat jejunum [2]),protection of CuZnSOD against inactivation by peroxynitrite (CuZnSOD),radiolabelled albumin leakage (rat jejunum [3]),"protection of RAW 264.7 cells from PN-mediated injury (RAW 264.7 cells; PN 360 micromolar, Alamar Blue, FIG. 8)"
"CC(=O)[O-].Cc1c(-c2c3nc(c(-c4c(C)c(S(=O)(=O)[O-])c(C)c(S(=O)(=O)[O-])c4C)c4ccc([n-]4)c(-c4c(C)c(S(=O)(=O)[O-])c(C)c(S(=O)(=O)[O-])c4C)c4nc(c(-c5c(C)c(S(=O)(=O)[O-])c(C)c(S(=O)(=O)[O-])c5C)c5ccc2[n-]5)C=C4)C=C3)c(C)c(S(=O)(=O)[O-])c(C)c1S(=O)(=O)[O-].[Fe+3].[Na+].[Na+].[Na+].[Na+].[Na+].[Na+].[Na+].[Na+] [Fe(III)TMPS, Acetato-5,10,15,20-tetrakis(3,5-disulfonatomesityl)porphyrin Iron (III) octasodium salt]",significant protection of cells,not to be effective catalysts for the dismutation of superoxide,LPS-induced damage was less severe,concentration dependant protection of CuZnSOD against inactivation by peroxynitrite,caused a reduction in radiolabelled albumin leakage,
"CC(=O)[O-].C[n+]1ccc(-c2c3nc(c(-c4cc[n+](C)cc4)c4ccc([n-]4)c(-c4cc[n+](C)cc4)c4nc(c(-c5cc[n+](C)cc5)c5ccc2[n-]5)C=C4)C=C3)cc1.Cc1ccc(S(=O)(=O)[O-])cc1.Cc1ccc(S(=O)(=O)[O-])cc1.Cc1ccc(S(=O)(=O)[O-])cc1.Cc1ccc(S(=O)(=O)[O-])cc1.[Fe+3] [Fe(III)TMPyP, Acetato (5,10,15,20-tetrakis(N-methyl-4-pyridyl)porphinato) iron (III) tetra-tosylate]",significant protection of cells,not to be effective catalysts for the dismutation of superoxide,LPS-induced damage was less severe,concentration dependant protection of CuZnSOD against inactivation by peroxynitrite,caused a reduction in radiolabelled albumin leakage,total protection from PN-mediated injury
